Assay results taken from US7947690B2, “Pyrimidine derivative condensed with a non-aromatic ring” (Astellas Pharma Inc., priority 2004, dated 2011).
Structures can show the parent of a compound that is named as a salt.

The molecules below were run on normal mice (assay: Oral glucose tolerance test on normal mouse). Details: ICR mice, nateglinide 10 mg/kg orally 30 minutes before glucose loading; at 30 minutes after glucose loading, relative to control group.
Type: in vivo
Description: (2) Oral Glucose Tolerance Test on Normal Mouse
In this assay, preventive activities of test compounds against hyperglycemia following glucose loading were examined using normal mice and nateglinide, a commercially available oral anti-hyperglycemic agent, as a reference compound. The assay procedure is given below.
ICR mice (male, six weeks old) that had been preliminary bred for one week were fasted for 18 to 20 hours to use as test animals. Each test compound was dissolved in 0.5% methylcellulose solution and orally administered at 3 mg/kg (10 mg/kg for nateglinide) before glucose loading. Timing to administer the test compound was selected to be optimal for each test compound, which was 10 minutes before glucose loading for the compounds of the present invention or 30 minutes before glucose loading for nateglinide, which was a reference compound. The hypoglycemic rate (%) at 30 minutes after glucose loading was measured relative to the control group.

Structure (SMILES) | Hypoglycemic rate, %
CC(C)[C@H]1CC[C@H](C(=O)N[C@H](Cc2ccccc2)C(=O)O)CC1 [Nateglinide, nateglinide] | 26%

Each molecule was assayed on MIN6B1 cell (assay: Assay for promoting activity on insulin secretion). Details: 10 μM test compound in KRB-HEPES with 16.8 mM glucose, 37° C., 22 minutes; relative value, insulin concentration for only DMSO = 100%.
Type: cell-based, mouse
Description: (1) Assay for Promoting Activity on Insulin Secretion
In this assay, promoting activities on insulin secretion of the test compounds were studied using MIN6B1 cell, which was a strain of mouse pancreatic β-cells, and glibenclamide, which was a commercially available insulin secretion secretagogue, as a reference compound. The assay procedure is given below.
MIN6B1 cells were seeded on a 48-well plate at a concentration of 1×10^5 cells/well (0.25 ml) (The medium was prepared by adding FCS (fetal calf serum) to DMEM (Dulbecco's Modified Eagle Medium) containing 25 mM glucose such that the FCS concentration became 10%). After two days, the medium was suctioned by an aspirator, each well was Washed four times with 0.2 ml of KRB-HEPES buffer (Krebs-Ringer-bicarbonate-N-2-hydroxylethylpiperazine-N′-2-ethanesulfonic acid; 130 mM NaCl, 4.7 mM KCl, 1.2 mM KH2PO4, 1.2 mM MgCl2.6H2O, 0.25 mM CaCl2.2H2O, 2.5 mM NaHCO3, 0.5% BSA, and 10 mM N-2-hydroxyethylpiperazine-N′-2-ethanesulfonic acid (pH 7.4)) containing 2.8 mM glucose warmed to 37° C., 0.2 ml of said buffer was again added, and the cells were incubated at 37° C. for 30 to 60 minutes. After the buffer was suctioned by an aspirator, 0.25 ml of a solution containing 10 μM of each test compound in KRB-HEPES containing 16.8 mM glucose was added to each well, and the cells were incubated at 37° C. for 22 minutes. The samples were pipetted and diluted by 25 to 51 times, and the insulin concentrations were analyzed using an insulin assay kit (Rat Insulin [^125I] Biotrak Assay System with Magnetic Separation; Amersham Bioscience K.K.). The test compounds were dissolved in 100% DMSO, and were added at the final concentration of 0.1%. The activity was expressed as a relative value, provided that insulin concentration for only DMSO was 100%.

Structure (SMILES) | Promotion activity on insulin secretion, %
O=S1(=O)Cc2nc(-c3cc(F)c(Cl)cc3F)nc(N3CCC(O)(CCCO)CC3)c2C1 [Example 272, 1-[2-(4-chloro-2,5-difluorophenyl)-6,6-dioidxo-5,7-dihydrothieno[3,4-d]pyrimidin-4-yl]-4-(3-hydroxypropyl)piperidin-4-ol] | 322%
O=C(CO)NCC1CCN(c2nc(-c3cc(F)c(Cl)cc3F)nc3c2CS(=O)(=O)C3)CC1 [Example 331] | 308%

Same assay, conditions: Mus musculus, 22 min, 10 μM test compound in KRB-HEPES with 16.8 mM glucose, 37° C., relative value, insulin concentration for only DMSO = 100%, read-out: Promotion activity on insulin secretion, %

Structure (SMILES) | activity at 10 µM
NC(=O)CCN1CCN(c2nc(-c3cc(F)c(Cl)cc3F)nc3c2CS(=O)(=O)C3)CC1 [Example 269, 3-{4-[2-(4-chloro-2,5-difluorophenyl)-6,6-dioxido-5,7-dihydrothieno[3,4-d]pyrimidin-4-yl]piperazin-1-yl}propanamide] | 212%
O=C(O)CCCC1CCN(c2nc(C3CCCC3)nc3c2CS(=O)(=O)C3)CC1 [Example 407, 4-[1-(2-cyclopentyl-6,6-dioxido-5,7-dihydrothieno[3,4-d]pyrimidin-4-yl)piperidin-4-yl]butyric acid] | 325%
O=S1(=O)Cc2nc(-c3cc(F)c(Cl)cc3F)nc(N3CCC(NCCCO)CC3)c2C1 [Example 287, 3-({1-[2-(4-chloro-2,5-difluorophenyl)-6,6-dioxido-5,7-dihydrothieno[3,4-d]pyrimidin-4-yl]piperidin-4-yl}amino)propan-1-ol] | 208%
O=C(O)CCCC1CCN(c2nc(-c3cc(F)c(Cl)cc3F)nc3c2CS(=O)(=O)C3)CC1 [Example 291, 4-{1-[2-(4-chloro-2,5-difluorophenyl)-6,6-dioxido-5,7-dihydrothieno[3,4-d]pyrimidin-4-yl]piperidin-4-yl}butyric acid] | 269%
NC(=O)CCC1CCN(c2nc(-c3cc(F)c(Cl)cc3F)nc3c2CS(=O)(=O)C3)CC1 [Example 283, 3-{1-[2-(4-chloro-2,5-difluorophenyl)-6,6-dioxido-5,7-dihydrothieno[3,4-d]pyrimidin-4-yl]piperidin-4-yl}propanamide] | 375%
C[C@@H]1CCCN(c2nc(-c3cc(F)c(Cl)cc3F)nc3c2CS(=O)(=O)C3)C1 [Example 1, (R)-2-(4-chloro-2,5-difluorophenyl)-4-(3-methylpiperidin-1-yl)-5,7-dihydrothieno[3,4-d]pyrimidine 6,6-dioxide hydrochloride] | 355%
COc1ccc(Cl)cc1C(=O)NCCc1ccc(S(=O)(=O)NC(=O)NC2CCCCC2)cc1 [Glibenclamide, glibenclamide, reference compound] | 122%
O=C(O)CCNC1CCN(c2nc(-c3cc(F)c(Cl)cc3F)nc3c2CS(=O)(=O)C3)CC1 [Example 288, 3-({1-[2-(4-chloro-2,5-difluorophenyl)-6,6-dioxido-5,7-dihydrothieno[3,4-d]pyrimidin-4-yl]piperidin-4-yl}amino)propionic acid] | 253%
